Data published in patent publication US12338253B2, “Nitrogen-containing polycyclic fused ring compound, pharmaceutical composition thereof, preparation method therefor and use thereof” (APPLIED PHARMACEUTICAL SCIENCE, INC., priority 2019, dated 2025).

Assays:
RET wt = RET wt (Homo sapiens (Human), UniProt P07949); assay: HTRF kinase activity test, RET wt; format: biochemical; conditions: for IC50: HTRF KinEASE-TK; for inhibitory activity on RET wt compared with cabozantinib: comparison in words
RET V804M = RET V804M (Homo sapiens (Human), UniProt P07949, V804M); assay: HTRF kinase activity test, RET V804M; format: biochemical; conditions: for IC50: HTRF KinEASE-TK; for inhibitory activity on RET V804M compared with cabozantinib: comparison in words
RET G810R = RET G810R (Homo sapiens (Human), UniProt P07949, G810R); assay: HTRF kinase activity test, RET G810R; format: biochemical; conditions: for IC50: HTRF KinEASE-TK; for inhibitory activity on RET G810R compared with cabozantinib and selpercatinib (LOXO-292): comparison in words
TT Cell = assay: TT cell activity test (CelltiterGlo, 72 h); format: cell-based, human; conditions: for IC50: Homo sapiens, TT cell line, 72 h, CTG; for inhibitory activity on TT cells compared with cabozantinib: comparison in words
Method: 2.3 Data Processing % Inhibition (inhibition rate)=100*(HC−test compound well reading)/(HC−LC) • High control (HC, reading control without inhibition): 0.5% DMSO • Low control (LC, control with compound inhibition): 1 μM CEP-32496
The IC50 values were calculated using GraphPad Prism 6 software. Y=Bottom+(Top−Bottom)/(1+10^((Log IC50−X)*HillSlope)); • X: log of cpd concentration; • Y: % inhibition; • Top and Bottom: plateaus in same units as Y; • Log IC50: same log units as X; and • HillSlope: slope factor The Cell Results are Shown in Table 5: […]

[1] = test system: TT cell human medullary thyroid carcinoma xenograft model; assay: Pharmacodynamic test on TT cell human medullary thyroid carcinoma xenograft model; format: in vivo, mice; conditions: 10 mg/kg, oral, twice a day, 28 consecutive days
Method: TT tumor cells were cultured in F12K medium containing inactivated 10% fetal bovine serum, 100 U/mL penicillin, 100 μg/mL streptomycin and 2 mM glutamine in an incubator at 37° C. and 5% CO2. The cells were cultured at a starting concentration of 1×10^6 cells/mL, and divided and transferred to flasks for sub-culture every 3 to 4 days when they were overgrown. The tumor cells in the logarithmic growth phase were used for tumor inoculation in vivo.
The TT tumor cells resuspended in serum-free F12K medium at a concentration of 1×10^7 cells+gel/100 μL were inoculated subcutaneously into the right flank of experimental animals. When the tumor grew to about 224 mm^3, the compounds were administered in groups, with 6 animals in each group.
The mice were orally administered with the test compound twice a day for 28 consecutive days.
Tumor volume: the long and short diameters of the tumor were measured using a vernier caliper. The volume was calculated by the formula: volume=0.5×long diameter×short diameter^2. Animals were required to have their body weight and tumor size measured twice a week during the administration.
Reaction of animals after the administration: the experimental animals were weighed while measuring the tumors. The relationship between the change in the animal weight and the time of administration was recorded. At the same time, the survival and health of the mice, such as animal activity, feeding and other general states during the administration were observed.
Relative tumor proliferation rate T/C (%)=TRTV/CRTV×100% (TRTV: treatment group RTV; CRTV: negative control group RTV), where the relative tumor volume (RTV) is calculated as: RTV=Vt/V0, where V0 is the tumor volume measured at the time of group administration (that is, day 1 of the administration), and Vt is the tumor volume at each measurement. Tumor growth inhibition rate TGI (%)=(1−T/C)×100%.

[2] = test system: Ba/F3 cell KIF5B-RET-V804M fusion xenograft model; assay: Pharmacodynamic test on Ba/F3 cell KIF5B-RET-V804M fusion xenograft model; format: in vivo, BALB/c nude mice; conditions: 10 mg/kg; for Tumor growth inhibition rate: oral, twice a day, end of the control experiment (day 8 of the administration); for tumor volume compared with the selpercatinib group: p<0.05
[3] = end of the experiment (day 14 of the administration)

Sequence of RET G810R (P07949 29-1114 G810R): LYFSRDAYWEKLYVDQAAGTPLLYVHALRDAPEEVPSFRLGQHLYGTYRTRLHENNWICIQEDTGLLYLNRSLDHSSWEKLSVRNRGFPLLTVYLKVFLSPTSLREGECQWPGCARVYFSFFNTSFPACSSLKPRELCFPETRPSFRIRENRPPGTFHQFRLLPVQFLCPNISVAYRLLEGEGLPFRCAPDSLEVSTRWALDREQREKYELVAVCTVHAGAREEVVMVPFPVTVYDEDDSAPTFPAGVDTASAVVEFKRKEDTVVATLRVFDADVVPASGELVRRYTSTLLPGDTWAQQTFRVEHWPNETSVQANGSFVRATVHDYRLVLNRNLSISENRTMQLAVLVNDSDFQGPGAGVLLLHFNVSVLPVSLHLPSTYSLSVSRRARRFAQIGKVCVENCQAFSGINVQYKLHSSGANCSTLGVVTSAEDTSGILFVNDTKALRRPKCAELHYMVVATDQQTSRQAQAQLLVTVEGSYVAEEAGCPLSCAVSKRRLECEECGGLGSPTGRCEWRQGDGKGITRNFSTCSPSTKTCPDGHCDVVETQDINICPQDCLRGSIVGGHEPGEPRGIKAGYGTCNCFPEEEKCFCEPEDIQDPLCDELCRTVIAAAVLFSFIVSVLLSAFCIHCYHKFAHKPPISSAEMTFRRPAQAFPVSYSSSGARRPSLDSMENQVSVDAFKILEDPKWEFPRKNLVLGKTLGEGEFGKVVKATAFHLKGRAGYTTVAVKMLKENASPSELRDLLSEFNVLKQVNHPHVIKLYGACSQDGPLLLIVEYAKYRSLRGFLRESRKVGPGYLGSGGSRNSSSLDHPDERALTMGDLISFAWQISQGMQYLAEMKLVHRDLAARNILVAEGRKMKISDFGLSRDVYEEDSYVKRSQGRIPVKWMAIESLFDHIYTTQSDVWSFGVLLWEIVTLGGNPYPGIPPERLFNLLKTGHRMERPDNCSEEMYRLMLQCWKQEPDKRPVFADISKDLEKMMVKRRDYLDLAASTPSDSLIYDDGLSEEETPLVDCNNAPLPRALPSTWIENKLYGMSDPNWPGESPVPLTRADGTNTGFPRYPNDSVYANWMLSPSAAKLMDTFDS
Sequence of RET wt (P07949 29-1114): as the sequence (P07949 29-1114 G810R) above, with R782G counted along it
Sequence of RET V804M (P07949 29-1114 V804M): as the sequence (P07949 29-1114 G810R) above, with V776M, R782G counted along it

Row | SMILES | IC50 (RET wt) [pM] | inhibitory activity on RET wt compared with cabozantinib (RET wt) | IC50 (RET V804M) [pM] | inhibitory activity on RET V804M compared with cabozantinib (RET V804M) | IC50 (RET G810R) [pM] | inhibitory activity on RET G810R compared with cabozantinib and selpercatinib (LOXO-292) (RET G810R) | IC50 (TT Cell) [pM] | inhibitory activity on TT cells compared with cabozantinib (TT Cell) | Tumor growth inhibition rate TGI [1] [%] | Tumor growth inhibition rate [2] [%] | tumor volume compared with the selpercatinib group ([2]; day 8 of the administration) | tumor volume compared with the selpercatinib group [2, 3]
1 | CCCOc1cc(-c2ccc(N3CC4CC(C3)N4Cc3ccc(OC)nc3)nc2)c2c3cn[nH]c3nn2c1 [Compound 38, 4-(6-(6-((6-methoxypyridin-3-yl)methyl)-3,6-diazabicyclo[3.3.1]heptan-3-yl)pyridin-3-yl)-6-propoxy-1H-pyrazolo[3′,4′:3,4]pyrazolo[1,5-a]pyridine] | 200 | significantly better than that of cabozantinib | 100 | significantly better than that of cabozantinib | 2900 | significantly better than that of cabozantinib and selpercatinib (LOXO-292) | 10600 | significantly better than that of cabozantinib |  |  |  | 
2 | COc1ccc(CN2C3CC2CN(c2ccc(-c4cc(OCCOC(F)F)cn5nc6[nH]ncc6c45)cn2)C3)cn1 [Compound 27, 6-(2-(difluoromethoxy)ethoxy)-4-(6-(6-((6-methoxypyridin-3-yl)methyl)-3,6-diazabicyclo[3.3.1]heptan-3-yl)pyridin-3-yl)-1H-pyrazolo[3′,4′:3,4]pyrazolo[1,5-a]pyridine] | 100 | significantly better than that of cabozantinib | 100 | significantly better than that of cabozantinib | 4800 | significantly better than that of cabozantinib and selpercatinib (LOXO-292) | 27900 | significantly better than that of cabozantinib |  |  |  | 
3 | COc1ccc(CN2C3CC2CN(c2ccc(-c4cc(OCC(F)F)cn5nc6[nH]ncc6c45)cn2)C3)cn1 [Compound 32, 6-(2,2-difluoroethoxy)-4-(6-(6-((6-methoxypyridin-3-yl)methyl)-3,6-diazabicyclo[3.3.1]heptan-3-yl)pyridin-3-yl)-1H-pyrazolo[3′,4′:3,4]pyrazolo[1,5-a]pyridine] | 100 | significantly better than that of cabozantinib | 100 | significantly better than that of cabozantinib | 2300 | significantly better than that of cabozantinib and selpercatinib (LOXO-292) | 6500 | significantly better than that of cabozantinib | 86.9 | 96 | significantly lower than that of the selpercatinib group | significantly lower than that of the selpercatinib group
4 | CCOc1cc(-c2ccc(N3CC4CC(C3)N4Cc3ccc(OC)nc3)nc2)c2c3cn[nH]c3nn2c1 [Compound 9, 6-ethoxy-4-(6-(6-((6-methoxypyridin-3-yl)methyl)-3,6-diazabicyclo[3.3.1]heptan-3-yl)pyridin-3-yl)-1H-pyrazolo[3′,4′:3,4]pyrazolo[1,5-a]pyridine] | 200 | significantly better than that of cabozantinib | 100 | significantly better than that of cabozantinib | 1900 | significantly better than that of cabozantinib and selpercatinib (LOXO-292) | 5500 | significantly better than that of cabozantinib | 88.5 | 94 | significantly lower than that of the selpercatinib group | significantly lower than that of the selpercatinib group
5 | COc1ccc(CN2C3CC2CN(c2ccc(-c4cc(OCC(C)(C)O)cn5ncc(C#N)c45)cn2)C3)cn1 [Selpercatinib(LOXO-292), Selpercatinib, reference compound] |  |  |  |  |  |  |  |  |  | 49 |  | 
6 | COc1cc(-c2ccc(N3CC4CC(C3)N4Cc3ccc(OC)nc3)nc2)c2c3cn[nH]c3nn2c1 [Compound 36, 6-methoxy-4-(6-(6-((6-methoxypyridin-3-yl)methyl)-3,6-diazabicyclo[3.3.1]heptan-3-yl)pyridin-3-yl)-1H-pyrazolo[3′,4′:3,4]pyrazolo[1,5-a]pyridine] | 200 | significantly better than that of cabozantinib | 100 | significantly better than that of cabozantinib | 1700 | significantly better than that of cabozantinib and selpercatinib (LOXO-292) | 10700 | significantly better than that of cabozantinib |  |  |  | 
7 | COc1ccc(CN2C3CC2CN(c2ccc(-c4cc(OCCCF)cn5nc6[nH]ncc6c45)cn2)C3)cn1 [Compound 12, 6-(3-fluoropropoxy)-4-(6-(6-((6-methoxypyridin-3-yl)methyl)-3,6-diazabicyclo[3.3.1]heptan-3-yl)pyridin-3-yl)-1H-pyrazolo[3′,4′:3,4]pyrazolo[1,5-a]pyridine] | 100 | significantly better than that of cabozantinib | 100 | significantly better than that of cabozantinib | 3900 | significantly better than that of cabozantinib and selpercatinib (LOXO-292) | 1500 | significantly better than that of cabozantinib |  |  |  | 
8 | COCCOc1cc(-c2ccc(N3CC4CC(C3)N4Cc3ccc(OC)nc3)nc2)c2c3cn[nH]c3nn2c1 [Compound 7, 6-(2-methoxyethoxy)-4-(6-(6-((6-methoxypyridin-3-yl)methyl)-3,6-diazabicyclo[3.3.1]heptan-3-yl)pyridin-3-yl)-1H-pyrazolo[3′,4′:3,4]pyrazolo[1,5-a]pyridine] | 100 | significantly better than that of cabozantinib | 100 | significantly better than that of cabozantinib | 2700 | significantly better than that of cabozantinib and selpercatinib (LOXO-292) | 2500 | significantly better than that of cabozantinib |  |  |  | 
9 | COc1ccc(CN2C3CC2CN(c2ccc(-c4cc(OCC(C)C)cn5nc6[nH]ncc6c45)cn2)C3)cn1 [Compound 39, 6-isobutoxy-4-(6-(6-((6-methoxypyridin-3-yl)methyl)-3,6-diazabicyclo[3.3.1]heptan-3-yl)pyridin-3-yl)-1H-pyrazolo[3′,4′:3,4]pyrazolo[1,5-a]pyridine] | 400 | significantly better than that of cabozantinib | 300 | significantly better than that of cabozantinib | 30500 | significantly better than that of cabozantinib and selpercatinib (LOXO-292) | 12300 | significantly better than that of cabozantinib |  |  |  | 
